Where “and” joins values, the source holds several entries; their conditions need not be identical. Identical values can stand only once.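 Cultured in 96-well plates, cells were exposed to test compound for 48 hours across five concentrations. GI50 = concentration required for 50% inhibition of growth. At the TGI there is no net growth.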
How the values were obtained:
Assay in all cases: inhibition of tumour cell growth, NCI panel, 48 h
IGROV1 ovarian = system: IGROV1 ovarian
RXF 393 renal = system: RXF 393 renal
PC-3 prostate = system: PC-3 prostate
KM12 colon = system: KM12 colon
OVCAR-4 ovarian = system: OVCAR-4 ovarian
MDA-MB-231 breast = system: MDA-MB-231 breast
MALME-3M melanoma = system: MALME-3M melanoma
SK-MEL-2 melanoma = system: SK-MEL-2 melanoma
MOLT-4 leukemia = system: MOLT-4 leukemia
DU-145 prostate = system: DU-145 prostate

Row | Structure (SMILES) | GI50 (IGROV1 ovarian) [µM] | TGI (IGROV1 ovarian) | GI50 (RXF 393 renal) [µM] | TGI (RXF 393 renal) | GI50 (PC-3 prostate) [µM] | TGI (PC-3 prostate) [µM] | GI50 (KM12 colon) [µM] | TGI (KM12 colon) | GI50 (OVCAR-4 ovarian) [µM] | TGI (OVCAR-4 ovarian) | GI50 (MDA-MB-231 breast) [µM] | TGI (MDA-MB-231 breast) [µM] | GI50 (MALME-3M melanoma) [µM] | TGI (MALME-3M melanoma) | GI50 (SK-MEL-2 melanoma) [µM] | TGI (SK-MEL-2 melanoma) | GI50 (MOLT-4 leukemia) [µM] | TGI (MOLT-4 leukemia) | GI50 (DU-145 prostate) [µM] | TGI (DU-145 prostate) [µM]
1 | Nc1ccccc1C#C/C=C\C#Cc1ccccc1OC(F)(F)F | 5.64 | 39.9 µM | 4.39 | 23.9 µM | 5.98 | > 100 | 4.78 | 27.3 µM | 11.6 | 42 µM | 5.34 | 24.7 | 11.4 | 38.1 µM | 6.38 | 29 µM | 2.91 | 24.1 µM | 4.81 | 29.9
2 | O=[N+]([O-])c1cccc(-c2csc(NNC3=NC/C(=C/c4ccc5c(c4)OCO5)S3)n2)c1 | – | 47.4 µM | – | 47.4 µM | – | 55.8 | – | 29.2 µM | – | > 100 µM | – | 93.9 | – | – | – | 56.5 µM | – | > 100 µM | – | > 100
3 | Cc1cc(N(CCC#N)CCC#N)ccc1N=Nc1ccc(S(N)(=O)=O)cc1 | – | > 100 µM | – | > 100 µM | – | – | – | > 100 µM | – | > 100 µM | – | – | – | > 100 µM | – | > 100 µM | – | > 100 µM | – | –
4 | CCCCCCCCCCCC(=O)OCCOCCOCCOCCOCCOCc1ccccc1 | – | > 100 µM | – | > 100 µM | – | – | – | > 100 µM | – | > 100 µM | – | – | – | > 100 µM | – | > 100 µM | – | > 100 µM | – | –
5 | Cc1c(C(=O)CC(=O)C(=O)Nc2ccccc2C(F)(F)F)[n+](=O)c2ccccc2n1[O-] | – | 47.5 µM | – | 80.1 µM | – | – | – | 61.6 µM | – | 42 µM | – | – | – | 37.1 µM | – | 48.3 µM | – | – | – | –
6 | NS(=O)(=O)c1ccc2c(c1)OCCOCCOCCOCCO2 | – | > 100 µM | – | – | – | > 100 | – | > 100 µM | – | – | – | > 100 | – | > 100 µM | – | – | – | > 100 µM | – | > 100
7 | CCCCCCCCCCCCCC(=O)OC(/C=C/C(C)C)C(O)C(O)C(OC)C(=O)NC1CCCCN(C)C1=O (stereo unspecified) | – | 5.9 µM and > 49 µM | > 49 | 6.22 µM and > 49 µM | – | – | – | 7.49 µM and > 49 µM | – | 7.57 µM and > 49 µM | – | – | – | 7.93 µM and > 49 µM | > 49 | 9.12 µM and > 49 µM | – | 7.54 µM and > 49 µM | – | –
8 | CC1(C)C(=O)/C=C\C(=O)C(C)(C)C2=CC=C(O2)C(C)(C)C(=O)/C=C\C(=O)C(C)(C)C2=CC=C1O2 | – | > 100 µM | – | > 100 µM | – | – | – | > 100 µM | – | > 100 µM | – | – | – | > 100 µM | – | > 100 µM | – | > 100 µM | – | –
9 | Cc1cc(NS(=O)(=O)c2ccc(Nc3c4ccccc4nc4c(C(=O)N5CCN(CCOS(C)(=O)=O)CC5)cccc34)cc2)no1 | – | > 100 µM | – | > 100 µM | – | – | – | > 100 µM | – | > 100 µM | – | – | – | > 100 µM | – | > 100 µM | – | > 100 µM | – | –
10 | CCOC(=O)/C=C/CC(C)(C)CCOC(C)=O | – | > 10 µM | – | > 10 µM | – | > 10 | – | > 10 µM | – | > 10 µM | – | > 10 | – | – | – | > 10 µM | – | > 10 µM | – | > 10
11 | NC(=O)NO.O.O.O.O.O.O.O.O.O.O.O.[Ge].[Ge].[Ge].[Ge].[Ge].[O]=[Ge].[O]=[Ge].[O]=[Ge].[O]=[Ge].[O]=[Ge][OH] | – | > 100 µM | – | > 100 µM | – | – | – | > 100 µM | – | > 100 µM | – | – | – | > 100 µM | – | > 100 µM | – | > 100 µM | – | –
12 | Cc1nc2c(ccc3ncccc32)[nH]1 | – | > 100 µM | – | > 100 µM | – | – | – | > 100 µM | – | > 100 µM | – | – | – | > 100 µM | – | > 100 µM | – | > 100 µM | – | –
13 | Cc1c(C(=O)C/C(=N/NC(=O)c2ccccc2O)C(=O)Nc2ccccc2C(C)C)[n+](=O)c2ccccc2n1[O-] | – | > 100 µM | – | > 100 µM | – | – | – | > 100 µM | – | > 100 µM | – | – | – | > 100 µM | – | 8.81 µM | – | 21.9 µM | – | –
14 | C=CCO[C@H]1CO[C@H]2[C@@H]1OC[C@@H]2Oc1ccc(Nc2ccnc(Nc3ccc(O[C@H]4CO[C@H]5[C@@H]4OC[C@@H]5OCC=C)c(Cl)c3)n2)cc1Cl | 1.79 | 3.54 µM | 1.69 | 3.1 µM | – | – | 1.65 | 3.08 µM | 1.57 | 2.93 µM | 1.69 | 3.23 | 1.54 | 2.91 µM | 2.29 | 5.31 µM | – | – | 1.69 | 3.13
15 | COC(=O)CC[N+]1=CCC(c2ccccc2)(c2ccccc2)O1 | – | > 100 µM | – | > 100 µM | – | > 100 | – | > 100 µM | – | > 100 µM | – | > 100 | – | – | – | > 100 µM | – | > 100 µM | – | > 100
16 | OCC1=CC(NC2CC(CO)C(O)C(O)C2O)C(O)C(O)C1O (stereo unspecified) | – | > 100 µM | – | > 100 µM | – | – | – | > 100 µM | – | – | – | – | – | > 100 µM | – | – | – | > 100 µM | – | –
17 | COC1/C=C/OC2(C)Oc3c(C)c(O)c4c(O)c(c(/C=N/Nc5ccc([N+](=O)[O-])cc5[N+](=O)[O-])c(O)c4c3C2=O)NC(=O)C(C)=C/C=C/C(C)C(O)C(C)C(O)C(C)C(OC(C)=O)C1C (stereo unspecified) | 1.87 | > 50 µM | 0.899 | 1.66 µM | 1.34 | 3.92 | 1.71 | 6.68 µM | 2.9 | > 50 µM | 1.32 | 4.01 | 1.21 | 6.13 µM | – | – | – | – | 2.55 | 9.32
18 | CCC[CH2][Sn]([CH2]CCC)([S]c1cccc2cccnc12)[S]c1cccc2cccnc12 | 0.224 | 0.53 µM | – | – | – | – | – | – | 0.135 | 0.307 µM | – | – | – | – | – | – | 0.109 | 0.397 µM | – | –
19 | CCOC(=O)CCC1(C(=O)OCC)CCCCC1=O (stereo unspecified) | – | > 100 µM | – | > 100 µM | – | – | – | > 100 µM | – | – | – | – | – | > 100 µM | – | > 100 µM | – | > 100 µM | – | –
20 | Cc1ccc(S(=O)(=O)OC[C@@H]2CO2)cc1 | – | > 100 µM | – | > 100 µM | – | – | – | > 100 µM | – | > 100 µM | – | – | – | > 100 µM | – | > 100 µM | – | > 100 µM | – | –
21 | COc1cc2cc(OC)c3cc4c(cc3c2c(OC)c1OC)OCO4 | – | > 100 µM | – | > 100 µM | – | – | – | > 51.2 µM | – | > 100 µM | – | – | – | > 100 µM | – | > 100 µM | – | > 85.8 µM | – | –
22 | O=C(O)CCNCCCNCCC(=O)O | – | > 100 µM | – | > 100 µM | – | – | – | > 100 µM | – | > 100 µM | – | – | – | > 100 µM | – | > 100 µM | – | > 100 µM | – | –
23 | c1ccc(-c2nc(-c3ccccc3SSc3ccccc3-c3nc(-c4ccccc4)nn3-c3ccccc3)n(-c3ccccc3)n2)cc1 | – | > 100 µM | – | > 100 µM | – | > 100 | – | > 100 µM | – | – | – | > 100 | – | > 100 µM | – | – | – | > 100 µM | – | > 100
